Values joined by “and” are separate entries in the source; they are usually repeats but may differ in a detail not shown here. Identical values can stand only once.
Columns and labels:
male ICR mice [1] = test: Hot plate test, analgesic efficacy (central nervous system); type: in vivo, mouse; conditions: G2, 60 mg/kg oral
Method: The experimental method used in this example is an analgesic efficacy experiment method using a hot plate test described in the “Guidelines for efficacy test of herbal preparations—General efficacy tests for painful diseases” announced by the Ministry of Food and Drug Safety, wherein the analgesic effect in the central nervous system of a mouse is measured with a response time to a heat stimulus as an index through a hot plate. At this time, the response time to the heat stimulus is measured as a time elapsed until the experimental animal licks the paw or jumps.
1) Celebrex (Celecoxib, Pfizer, 200 mg), Saline (Chungwae Pharmaceutical), Chrysanthemum extract (Green Cross HS) and male ICR mice (6 weeks old, weight 30-35 g, Orient Bio) were prepared. In this example, the Chrysanthemum extract was extracted by the organic solvent extraction method described in the above preparative example wherein it was extracted using 70% ethanol.
2) 60 mg/kg of Celebrex and 50, 100 and 200 mg/kg of Chrysanthemum extracts were prepared and orally administered to ICR mice, respectively. At this time, Celebrex is converted into administration concentration and suspended in saline while vortexing, and Chrysanthemum extract is suspended in 0.5% CMC and sonicated at 20 to 25° C. for about 10 minutes.
According to the efficacy experimental method using the hot plate test method, as the experimental animals, 5-week-old male ICR mice were purchased, acclimatized for 1 week, and then tested. The hot plate was maintained at 55° C., and drug administration was performed 30 minutes before this method. The central pain response due to heat was measured with an index, i.e., the time elapsed until the mouse licks the hind paw or jumps starting from contacting with the hot plate.
Then, the pain response due to heat was measured with an index, i.e., the time elapsed until the mouse licks the hind paw or jumps starting from contacting with the hot plate.

male ICR mice [2] = test: Acetic acid writhing test, analgesic efficacy (peripheral nerves); type: in vivo, mouse; conditions: G2, 60 mg/kg oral
Method: The experimental method used in this example is the “Acetic acid writhing test” described in the “Guidelines for efficacy test of herbal preparations—General efficacy tests for painful diseases” announced by the Ministry of Food and Drug Safety, wherein acetic acid is administered intraperitoneally to cause damage of capillaries and pain in the abdominal cavity, and the analgesic effect in peripheral nerves is measured using the abdominal contractile response as an index.
1) Celebrex (Celecoxib, Pfizer, 200 mg), acetic acid (Daejunghwageum), Saline (Chungwae Pharmaceutical), Chrysanthemum extract (Green Cross HS) and male ICR mice (5 weeks old, Orient Bio) were prepared. In this example, the Chrysanthemum extract was extracted by the organic solvent extraction method described in the above preparative example wherein it was extracted using 70% ethanol.
2) 60 mg/kg of Celebrex and 50, 100 and 200 mg/kg of Chrysanthemum extracts were prepared and orally administered to ICR mice. At this time, Celebrex is converted into administration concentration and suspended in saline while vortexing, and Chrysanthemum extract is suspended in 0.5% CMC and sonicated at 20 to 25° C. for about 10 minutes.
For the experimental method for analgesic effects to the acetic acid writhing test, as the experimental animals, 4-week-old male ICR mice were purchased, acclimatized for 1 week, and then tested. The Chrysanthemum extract and control drug, respectively, were orally administered to mice by dose, followed by intraperitoneal injection of acetic acid (0.7% acetic acid-physiological saline (0.1 ml/10 g B.W.)) 30 minutes after administration. Subsequently, from 5 minutes after injection, the number of occurrences of writhing was measured for 10 minutes (FIG. 3).
Subsequently, from 5 minutes after the intraperitoneal administration, the number of occurrences of writhing syndrome was counted for 10 minutes and results thereof are shown in FIG. 10 and Table 14.

## Cc1ccc(-c2cc(C(F)(F)F)nn2-c2ccc(S(N)(=O)=O)cc2)cc1 [Celecoxib]
Male ICR mice [1]
  Response time, % of control (increase rate): 53.9%
Male ICR mice [1]; hot plate 55° C., mice 1-8
  Response time, individual mouse: 26.94 s and 27.82 s and 35.55 s and 36.22 s and 28.54 s and 33.71 s and 32.71 s and 25.61 s
Male ICR mice [1]; n=8, control mean 20.07
  Response time, mean: 30.89 s
Male ICR mice [2]; 0.7% acetic acid i.p. 30 minutes after administration, mice 1-6
  Writhing syndrome/10 min, individual mouse: 9.00 /10 min and 6.00 /10 min and 15.00 /10 min and 14.00 /10 min and 25.00 /10 min and 18.00 /10 min
Male ICR mice [2]; n=6, control mean 28.33
  Writhing syndrome/10 min, mean: 14.50 /10 min
Male ICR mice [2]; Mus musculus, read-out: Writhing syndrome, % of control (inhibition rate, reduction compared to control)
  inhibition at 60 mg/kg: 48.9%
